{
  "source": "paper PMC7127027",
  "about": "(Bioorganic & Medicinal Chemistry Letters, 2017)",
  "tested_on": "Hela cells RCB 0007",
  "settings": "human",
  "data": [
    {"smiles": "O=C(/C=C/c1ccccc1)N[C@@H](c1ccccc1)[C@@H](OC(=O)c1ccccc1)C(=O)NC1CCCCC1", "note": "[Compound 4, (2R,3S)-Cyclohexyl 3-(N-cinnamoyl)amino-3-phenyl-2-benzoyloxypropanamide]", "values": [
      {"measurement": "cell death ratio", "result": "less than 10%"}
    ]}
  ]
}
